Data taken from paper PMC5570892, “Indole-based perenosins as highly potent HCl transporters and potential anti-cancer agents” (Scientific Reports, 2017).
Where two headings read alike, the source gives them in different places.

Columns and labels:
[1] = pKa by UV spectrophotometric titration in POPC vesicles; format: physicochemical; conditions: apparent pKa in presence of POPC lipid bilayer, NaCl 500 mM, phosphate 5 mM
Description: The pK a at which protonation of the imine (N2, see Fig. 3) occurs gives an indication of the optimum pH for the binding of chloride anions. This is an important consideration in anti-cancer drug development as the external pH environment of cancer cells is mildly acidic (pH 6.7)[53] compared to that of healthy cells (pH 7.2–7.5)[54]. This can be exploited to selectively target cancer cells and potentially reduce the cytotoxic effects of perenosins when used as therapeutics for anti-cancer treatment. The apparent pK a values, shown in Table 1, for compounds 1d and 2–8 were determined both in aqueous solution (pK a (aq)) and in the presence of a 1-palmitoyl-2-oleoyl-sn-glycero-3-phosphocholine (POPC) lipid bilayer membrane (pK a (mem)). UV spectrophotometric titrations were conducted by varying the pH condition from neutral to acidic with the titration of either HPF6 or HCl.
The apparent pK a values were derived from nonlinear curve fitting of the absorbance plotted against the pH; global fitting of both wavelengths corresponding to the neutral and protonated species were performed whenever feasible, see Supplementary Information for details. […]
All spectra obtained have the increasing and decreasing peaks marked with an arrow.
Isosbestic points were not observed in the titrations due to break down of the imine in acidic conditions. The breakdown product is shown, for all compounds, as the increasing absorbance peak […]
S6.2 pKa Studies in Vesicles pKa values for compounds 1d, 2, 4, 5, 7 and 8 were determined experimentally in vesicles through a […]
absorbance between the UV -Vis spectra of the protonated and the neutral species. Unilamellar vesicles were prepared using previously reported literature procedures 7-9. A lipid film of POPC (1 - palmitoyl-2-oleoyl-sn-glycero-3-phosphocholine) was prepared from a chloroform solution under reduced pressure and then dried under vacuum for 4 or more hours. The lipid film was rehydrated by vortexing with a solution of phosphate buffered (5 mM) sodium chloride (500 mM). The lipid suspension was then subjected to 9 freeze-thaw cycles and left to rest at room temperature for 30 minutes. After this, the suspension was extruded 25 times through a 400 nm polycarbonate membrane resulting in unilamellar vesicles of a mean diameter of 400 nm. The titration solution was made up to a standard volume (2500 μL, 1 mM) with the lipid (615 μL), phosphate buffered (5 mM) sodium chloride (500 mM) solution ([…]) and a transporter solution (10 μL, 25 mM), and the pH of this was noted . The UV-Vis spectra were recorded on an Agilent Cary 100 UV-Vis spectrophotometer at 25 °C with baseline correction, using standard 10 mm quartz glass cells. A baseline absorbance was measured using a solution of lipid, phosphate buffered (5 mM) sodium chloride (500 mM) and DMSO, and then the absorbance of the titration solution was measured. The pH of the solution was decreased stepwise by adding small aliquots of hydrochloric acid (0.1 mM).
(1 picture or pasted object on this page, not shown here)
After each pH decrease an absorbance measurement was taken. The absorbance at a certain wavelength (shown for each compound below) was plotted against the pH and then fitted using a dose response curve in OriginPro 9.1, where the point of inflection corresponds to the apparent pKa […]
Figure S44. Absorbance spectra taken over the course of a pH-spectrophotometric titration of 1d (25 mM) in a sodium chloride (500 mM) phosphate buffered (5 mM) lipid solution (1 mM). Inset: Abs vs. pH with dose response curve fit and the point of inflection corresponding to the p Ka value.
Figure S45. Absorbance spectra taken over the course of a pH -spectrophotometric titration of 2 (25 […]
pH with dose response curve fit with the point o f inflection corresponding to the p Ka value. […]

MDA-MB-231 cells = test: MTT cell viability assay; format: cell-based; conditions: Homo sapiens, error from three repeats in brackets
Description: Herein, we carried out further in vitro studies at the University of Barcelona for the full library of perenosins. Single dose screening for cell viability using the methylthiazoletetrazolium (MTT) colorimetric assay over five different cell lines (cancer cells MCF-7, MDA-MB-231, A549 and SW620, and non-cancerous human cells MCF-10A) was conducted.
While perenosin 5, with pentyl substituent at R3, has similar cell viability effects as 1d, bis-indole perenosin 7 with pentyl substituent at R1 has a moderate degree of late onset by a factor of 7.
S11.1 Cell Lines and Culture Conditions
The human cell lines were obtained from the American Type Culture Collection (ATCC, Manassas VA). Breast adenocarcinoma MDA-MB-231 and MCF-7 cells were maintained in DMEM:F12 media (1:1; Biological Industries, Beit Haemek, Israel), and 10 µg/ml insulin and 50 µM sodium pyruvate from Sigma-Aldrich Chemical Co. (St. Louis, MO) were added to MCF-7 cells. Lung adenocarcinoma A549 and colorectal adenocarcinoma SW620 cells were cultured in DMEM media. All were supplemented with 10% foetal bovine serum (FBS; Invitrogen-Life Technologies, Carlsbad, CA) and 100 U/mL penicillin, 100 µg/mL streptomycin and 2 mM L-glutamine, all from Biological Industries.
Mammary epithelial MCF-10A cells were maintained in DMEM:F12 media supplemented with 5% horse serum (Life Technologies), 20 ng/ml EGF, 0.5 µg/ml Hydrocortisone, 100 ng/ml Cholera toxin, 10 µg/ml insulin all from Sigma-Aldrich and 100 U/ml penicillin, 100 µg/ml streptomycin, and 2 mM L- glutamine (Biological Industries). Cells were grown at 37 °C under a 5% CO2 atmosphere.
S11.2 Cell Viability Assays
Cell viability was evaluated using the methylthiazoletetrazolium (MTT) colorimetric assay. Cancer cells (MCF-7, MDA-MB-231, A549 and SW620) or non-cancerous human cells MCF-10A cells were harvested (10^4 cells/well) in 96-well plates in a final volume of 100 µl and allowed to grow overnight.
After 24 h, vehicle solution (DMSO) or experimental compounds were added at 10 µM (single point experiment) or at different ranging concentrations (0.8-100 µM) to the assay plate and were incubated for 24 or 72 h. Then, 10 µl of MTT (5 mg/ml; Sigma-Aldrich) were added and the plates were incubated for 4 h at 37°C. 100 µl of DMSO (Sigma-Aldrich) were added to dissolve crystals and the reading was taken spectrophotometrically at 570 nm using a multi-well plate reader (Multiskan FC, Thermo Scientific, Waltham, MA, USA). Cell viability and inhibitory concentration (IC) values were obtained using GraphPad Prism v5.0 (Graphpad Software, San Diego, CA, USA). All data are shown as the mean value ± standard deviation (S.D.) of three independent experiments.

[2] = MDA-MB-231, 24 h exposure, read-out: IC50 (24 h)
[3] = MDA-MB-231, 72 h exposure, read-out: IC50 (72 h)

Structure (SMILES)	pK a (mem) [1]	IC50 (MDA-MB-231 cells; [2])	IC50 (MDA-MB-231 cells; [3])
CCCCCc1cc2cc(C)cc(/N=C/c3[nH]c4ccccc4c3C)c2[nH]1 [Perenosin 8]	5.62	> 100 µM	38 µM
CCCCCc1c(C)[nH]c(/C=N/c2cc(C)cc3cc[nH]c23)c1C [Perenosin 5]	5.81	20.3 µM	14 µM
CCCc1cc2cc(C)cc(/N=C/c3[nH]c(C)cc3C)c2[nH]1 [Perenosin 4]	6.12	> 100 µM	9.2 µM
CCCCCc1cc2cc(C)cc(/N=C/c3[nH]c(C)c(CCCCC)c3C)c2[nH]1 [Perenosin 6]	–	> 100 µM	4.2 µM
CCCCCc1cc(/N=C/c2[nH]c(C)cc2C)c2[nH]ccc2c1 [Perenosin 1d]	5.42	25.2 µM	16.6 µM
CCCCCc1cc2cc(C(F)(F)F)cc(/N=C/c3[nH]c(C)cc3C)c2[nH]1 [Perenosin 3]	–	> 100 µM	9.5 µM
CCCCCc1cc(/N=C/c2[nH]c3ccccc3c2C)c2[nH]ccc2c1 [Perenosin 7]	5.07	73.8 µM	11 µM
CCCCCc1cc2cc(C)cc(/N=C/c3[nH]c(C)cc3C)c2[nH]1 [Perenosin 2]	5.85	> 100 µM	11.3 µM
